From patent publication US7741352B2, “KCNQ channel modulating compounds and their pharmaceutical use” (Neurosearch A/S, priority 2003, dated 2010)

Molecular target: T1, human KCNQ4 channel (Homo sapiens, UniProt P56696)
T1 construct: expressed in transfected cells
Test: Electrophysiological determination: whole-cell patch-clamp of voltage-activated KCNQ current
Type: cell-based
Details: HEK293 cell line stably expressing human KCNQ4; current at end of step to −30 mV; baseline current defined as 100%; test concentration not given
Method: KCNQ channels constitute a subfamily of the voltage-dependent potassium (K) channels. Five members of this family have been cloned (1-5) and they have been heterologously expressed in various homo- and heteromeric combinations. The ionic current through the channels is recorded in the whole-cell mode of the patch-clamp technique. The KCNQ currents are activated by a depolarising voltage step and it is investigated whether the test compound change the amount of basal current. Compounds that induce an increase in the voltage-activated current are called activators and the effect obtained by these activators is described as a percentage increase in baseline current at a given concentration.
A HEK293 cell line stably expressing the human KCNQ4 channel was obtained as described by Søgaard et al. [Søgaard R, Ljungstrøm T. Pedersen K A, Olesen S-P, Jensen B S: KCNQ4 channels expressed in mammalian cells: Functional characteristics and pharmacology; Am. J. Phys. 2000 280 C859-C866].
Experiments are carried out on a patch-clamp set-up. Cells plated on cover slips (Ø3.5 mm) are placed in a 15 μl perfusion chamber (flow rate ˜1 ml/min) mounted on an IMT-2 or IX-70 microscope equipped with Nomarski or Hoffmann optics. The microscope is placed on a vibration-free table in a grounded Faraday cage. All experiments are performed at room temperature (20-22° C.). The EPC-9 patch-clamp amplifier (HEKA-electronics, Lambrecht, Germany) is connected to a Macintosh computer via an ITC16 interface. Data are stored directly on the hard disk and analysed using IGOR software (Wavemetrics, Lake Oswego, USA).
The whole-cell configuration of the patch clamp technique is applied. In short: The Up of a borosilicate pipette (resistance 24 MΩ) is gently (remote control system) placed on the cell membrane. Light suction results in a giga seal (pipette resistance increases to more than 1 GΩ) and the cell membrane is then ruptured by more powerful suction. Cell capacitance is electronically compensated and the resistance between the pipette and the cell interior (the series resistance, Rs) is measured and compensated for. Usually the cell capacitance ranges from 5 to 20 pF (depending on cell size) and the series resistance is in the range 3 to 6 MΩ. Rs- as well as capacitance compensation are updated during the experiments (before each stimulus). All experiments with drifting Rs-values are discharged. Leak-subtractions are not performed but the leak is estimated by a hyper-polarisation voltage step.
The extracellular (bath) solution contains 144 mM NaCl, 2 mM CaCl2, 1 mM MgCl2, 10 mM HEPES (pH=7.4). […] By use of the program EqCal the concentration of free Ca^2+ have been calculated to 100 nM, the free Mg^2+ is 1 mM, and MgATP is 1.45 mM. […]

Structure (SMILES)	IK (%)
O=C(O)c1ccc(-c2ccc(COc3ccc(C(=O)O)c(O)c3)cc2)cc1 [Compound 3-17, 4′-(4-Carboxy-3-hydroxy-phenoxymethyl)-biphenyl-4-carboxylic acid]	115%
Nc1cccc(-c2ccc(COc3ccc(C(=O)O)c(O)c3)cc2)c1 [Compound 3-11, 4-(3′-Amino-biphenyl-4-ylmethoxy)-2-hydroxy-benzoic acid]	115%

Same assay, conditions: HEK293 cell line stably expressing human KCNQ4; whole-cell patch clamp

Structure (SMILES)	activator or inhibitor of the KCNQ channel (increase or decrease in current)
O=C(O)c1ccc(-c2ccc(COc3ccc(C(=O)O)c(O)c3)cc2)cc1 [Compound 3-17, 4′-(4-Carboxy-3-hydroxy-phenoxymethyl)-biphenyl-4-carboxylic acid]	activators
Nc1cccc(-c2ccc(COc3ccc(C(=O)O)c(O)c3)cc2)c1 [Compound 3-11, 4-(3′-Amino-biphenyl-4-ylmethoxy)-2-hydroxy-benzoic acid]	activators

System: not given
Test: not given
Details: not given

Structure (SMILES)	melting point
COc1cccc(-c2ccc(COc3ccc(C(=O)O)c(O)c3)cc2)c1 [Compound 3-9, 2-Hydroxy-4-(3′methoxy-biphenyl-4-ylmethoxy)-benzoic acid]	197 to 199 °C (dec.)
O=C(O)c1ccc(-c2ccc(COc3ccc(C(=O)O)c(O)c3)cc2)cc1 [Compound 3-17, 4′-(4-Carboxy-3-hydroxy-phenoxymethyl)-biphenyl-4-carboxylic acid]	279 to 284 °C (dec.)
CC(=O)c1ccc(-c2ccc(COc3ccc(C(=O)O)c(O)c3)cc2)s1 [Compound 3-13, 4-[4-(5-Acetyl-thiophen-2-yl)-benzyloxy]-2-hydroxy-benzoic acid]	244 to 248 °C (dec.)
O=C(O)c1ccc(OCCCN2CCCCC2)cc1O [Compound 1-21, 2-Hydroxy-4-(3-piperidin-1-yl-propoxy)-benzoic acid]	194 °C (dec.)
C=CCCCCCCOc1ccc(C(=O)O)c(O)c1 [Compound 1-10, 2-Hydroxy-4-oct-7-enyloxy-benzoic acid]	102 to 111 °C
O=C(O)c1ccc(OCCCCC(O)CO)cc1O (centres unmarked) [Compound 2-3, 4-(5,6-Dihydroxhexoxy)-2-hydroxy-benzoic acid]	152 °C
O=C(O)c1ccc(OCc2ccc(F)cc2)cc1O [Compound 1-18, 4-(4-Fluoro-benzyloxy)-2-hydroxy-benzoic acid]	196 to 198 °C
COc1cc(NC(=O)c2ccc(-c3ccccc3)cc2)ccc1C(=O)O [Compound 7-1]	179 to 181 °C
O=C(O)c1ccc(OCc2ccc(-c3cccc([N+](=O)[O-])c3)cc2)cc1O [Compound 3-10, 2-Hydroxy-4-(3′-nitro-biphenyl-4-ylmethoxy)-benzoic acid]	211 to 214 °C (dec.)
COc1cc(-c2cccc(COc3ccc(C(=O)O)c(O)c3)c2)ccc1O [Compound 3-26, 2-Hydroxy-4-(4′-hydroxy-3′-methoxy-biphenyl-3-ylmethoxy)-benzoic acid]	153 to 157 °C (dec.)
N#Cc1ccc(NCc2ccc(-c3ccccc3)cc2)cc1O [Compound 12-16, 4-[(Biphenyl-4-ylmethyl)-amino]-2-hydroxy-benzonitrile]	196 to 197 °C
O=C(O)c1ccc(OCc2cccc(-c3cccc4ccccc34)c2)cc1O [Compound 3-37, 2-Hydroxy-4-(3-naphthalen-1-yl-benzyloxy)-benzoic acid]	156 to 164 °C (dec.)
O=C(Nc1ccc(C(=O)O)c(O)c1)c1ccc(-c2ccccc2)cc1 [Compound 7-2, 4-[(Biphenyl-4-carbonyl)-amino]-2-hydroxy benzoic acid]	266 °C (dec.)
O=C(O)c1ccc(OCc2ccc(-c3cccnc3)cc2)cc1O [Compound 3-1, 2-Hydroxy-4-(4-pyridin-3-yl-benzyloxy)-benzoic acid]	209 to 211 °C (dec.)
O=C(O)c1ccc(OCCC(O)CO)cc1O (centres unmarked) [Compound 2-2, 4-(3,4-Dihydroxybutoxy)-2-hydroxy-benzoic acid]	140 to 148 °C
CCCCCCCCOc1ccc(C(N)=O)c(O)c1 [Compound 12-4, 2-Hydroxy-4-octyloxy-benzamide]	123 to 124 °C

Structure (SMILES)	melting point
CCCCCCCCOc1ccc(-c2nnn[nH]2)c(O)c1 [Compound 12-6, 5-Octyloxy-2-(1H-tetrazol-5-yl)-phenol]	142 to 146 °C
O=C(O)c1ccc(OCc2cccc(-c3ccccc3)c2)cc1O [Compound 3-18, 4-(Biphenyl-3-ylmethoxy)-2-hydroxy-benzoic acid]	184 °C (dec.)
O=C(O)c1ccc(OCc2cccc(Br)c2)cc1O [Compound 1-23, 4-(3-Bromo-benzyloxy)-2-hydroxy-benzoic acid]	191 to 197 °C
O=C(O)c1ccc(Oc2ccc(-c3ccccc3)cc2[N+](=O)[O-])cc1O [Compound 8-4, 2-Hydroxy-4-(3-nitro-biphenyl-4-yloxy)-benzoic acid]	> 200 °C (dec.)
NNC(=O)c1ccc(OCc2cccc(Br)c2)cc1O [Compound 2-7, 4-(3-Bromo-benzyloxy)-2-hydroxy-benzoic acid hydrazide]	201 to 203 °C
O=C(O)c1ccc(OCCCCCCO)cc1O [Compound 1-8, 2-Hydroxy-4-(6-hydroxyhexyloxy) benzoic acid]	139 °C
COc1ccc(-c2cccc(COc3ccc(C(=O)O)c(O)c3)c2)c(OC)c1 [Compound 3-42, 4-(2′,4′-Dimethoxy-biphenyl-3-ylmethoxy)-2-hydroxy-benzoic acid]	176 to 178 °C (dec.)
O=C(O)c1ccc(OCc2cccc(-c3ccc4[nH]ccc4c3)c2)cc1O [Compound 3-34, 2-Hydroxy-4-[3-(1H-indol-5-yl)-benzyloxy]-benzoic acid]	193 to 196 °C (dec.)
O=C(O)c1ccc(OCc2ccc(-c3ccco3)cc2)cc1O [Compound 3-3, 4-(4-Furan-2-yl-benzyloxy)-2-hydroxy-benzoic acid]	201 to 205 °C (dec.)
COc1ccncc1-c1ccc(COc2ccc(C(=O)O)c(O)c2)cc1 [Compound 3-5, 2-Hydroxy-4-[4-(4-methoxy-pyridin-3-yl)-benzyloxy]-benzoic acid]	197 to 200 °C (dec.)
O=C(O)c1ccc(OCc2ccc(-c3ccc(CO)cc3)cc2)cc1O [Compound 3-16, 2-Hydroxy-4-(4′-hydroxymethyl-biphenyl-4-ylmethoxy)-benzoic acid]	222 to 226 °C (dec.)
O=C(O)c1ccc(NCc2ccc(F)cc2)cc1O [Compound 6-4, 4-(4-Fluoro-benzylamino)-2-hydroxy-benzoic acid]	175 °C (dec.)
O=C(c1ccccc1)c1ccc(COc2ccc(C(=O)O)c(O)c2)cc1 [Compound 1-20, 4-(4-Benzoyl-benzyloxy)-2-hydroxy benzoic acid]	198 to 199 °C
O=C(O)c1ccc(OCc2cccc(-c3cc(Cl)cc(Cl)c3)c2)cc1O [Compound 3-31, 4-(3′,5′-Dichloro-biphenyl-3-ylmethoxy)-2-hydroxy-benzoic acid]	194 to 197 °C (dec.)
Nc1cccc(-c2ccc(COc3ccc(C(=O)O)c(O)c3)cc2)c1 [Compound 3-11, 4-(3′-Amino-biphenyl-4-ylmethoxy)-2-hydroxy-benzoic acid]	207 to 210 °C (dec.)
